Source: PubChem BioAssay (NCI)
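Values below derive from 48-hour exposures of cells grown in 96-well plates, with endpoints linearly interpolated between the two concentrations bracketing the appropriate inhibition level. GI50 is the concentration that inhibits growth by half. TGI: total growth inhibition.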

Experiments:
Assay in all cases: growth of human tumour cells (NCI), 48 h
A549 NSCLC = tested on: A549 NSCLC
SF-268 CNS = tested on: SF-268 CNS
SK-MEL-28 melanoma = tested on: SK-MEL-28 melanoma
HCC-2998 colon = tested on: HCC-2998 colon
HOP-62 NSCLC = tested on: HOP-62 NSCLC
NCI-H460 lung = tested on: NCI-H460 lung
CAKI-1 renal = tested on: CAKI-1 renal
SR leukemia = tested on: SR leukemia
ACHN renal = tested on: ACHN renal
RXF 393 renal = tested on: RXF 393 renal

Compound	TGI (A549 NSCLC) [µM]	TGI (SF-268 CNS) [µM]	TGI (SK-MEL-28 melanoma) [µM]	TGI (HCC-2998 colon) [µM]	TGI (HOP-62 NSCLC) [µM]	TGI (NCI-H460 lung) [µM]	TGI (CAKI-1 renal) [µM]	TGI (SR leukemia) [µM]	TGI (ACHN renal) [µM]	TGI (RXF 393 renal) [µM]	GI50 (A549 NSCLC) [µM]	GI50 (RXF 393 renal) [µM]	GI50 (SF-268 CNS) [µM]	GI50 (SK-MEL-28 melanoma) [µM]	GI50 (HOP-62 NSCLC) [µM]	GI50 (NCI-H460 lung) [µM]	GI50 (CAKI-1 renal) [µM]	GI50 (ACHN renal) [µM]	GI50 (SR leukemia) [µM]	GI50 (HCC-2998 colon) [µM]
CC(C)OP(=O)(OC(C)C)C(=NCCN=C(NNc1ccc([N+](=O)[O-])cc1)P(=O)(OC(C)C)OC(C)C)NNc1ccc([N+](=O)[O-])cc1	> 100	> 100	> 100	> 100	> 100	> 100	25.4	> 100	66.5	–	–	–	–	–	–	–	–	–	–	–
O=S(=O)(CCn1c(Sc2ccccc2)c(Sc2ccccc2)c2ccccc21)c1ccccc1	> 100	> 100	> 100	> 100	> 100	> 100	> 100	> 100	> 100	–	–	–	–	–	–	–	–	–	–	–
CN(C)c1ccc(/C=C(\NC(=O)c2ccccc2)c2nc3ncncc3[nH]2)cc1	> 100	> 100	> 100	> 100	–	–	> 100	> 100	> 100	> 100	–	–	–	–	–	–	–	–	–	–
COc1cc2c3c(n(C)c(=O)c2cc1OC)-c1cc2c(cc1/C3=C\CCN)OCO2	4.44	16.6	33.5	–	5.8	1.81	3.02	–	0.585	6.86	0.165	0.823	0.167	8.76	0.067	0.0147	0.112	0.0476	–	–
C#CC1(O)CCC2C3CCc4cc(Oc5nc(F)nc(-c6c7ccccc7c7sc8ccccc8n67)n5)ccc4C3CC[C@@]21C (stereo partly drawn)	> 100	> 100	> 100	> 100	> 100	> 100	> 100	> 100	> 100	–	–	–	–	–	–	–	–	–	–	–
CCc1cc(Cc2cc(CC)c(NC(=O)C(=O)Cc3ccccn3)c(CC)c2Cl)c(Cl)c(CC)c1NC(=O)C(=O)Cc1ccccn1	> 100	> 100	> 100	> 100	> 100	> 100	> 100	> 100	> 100	–	–	–	–	–	–	–	–	–	–	–
Cc1cccc(NC(=O)Cn2cnc3sc(C(=O)OC(C)C)c(C)c3c2=O)c1	> 50	> 50	> 50	–	35.9	> 50	> 50	> 50	26.6	22.7	16.4	7.1	18.8	16.6	13.7	25.2	45.9	9.73	> 50	–
c1ccc(COc2cccc3ccc[n+](Cc4ccccc4)c23)cc1	> 100	> 100	25.4	41.4	50.8	35.7	–	–	52.7	61.9	–	–	–	–	–	–	–	–	–	–
COc1ccc([C@H]2[C@@H](F)C(=O)N2c2cc(OC)c(OC)c(OC)c2)cc1F	> 100	> 100	> 100	> 100	> 100	91.1	–	> 100	–	66	0.394	0.0398	0.324	15.8	0.511	0.356	–	–	0.0408	0.406
COc1cc2c3c(n(C)c(=O)c2cc1OC)-c1cc2c(cc1/C3=C\CCCN)OCO2	> 100	66.9	> 100	32.3	26.6	> 100	8.62	–	8.64	32	4.3	5.84	4.93	18.8	3.64	2.65	1.99	2.09	–	10.4
COC(OC)C(C)CC(=O)N(C)C (stereo not drawn)	> 100	> 100	> 100	> 100	> 100	> 100	–	–	> 100	–	–	–	–	–	–	–	–	–	–	–
COc1ccc(-c2nnc(COc3ccc(NC(=O)Nc4cc(C(F)(F)F)cc(C(F)(F)F)c4)cc3F)o2)cc1	7.15	9.94	6.85	5.92	7.12	4.38	–	5.95	10.1	6.06	1.58	1.96	3.04	2.4	2.69	1.66	–	2.54	2.19	2.42
CCOC(=O)C(=C=C=C(c1ccccc1)c1ccccc1)C(=O)OCC	74.5	63.5	36.8	61.4	45.2	46.5	–	–	36.7	32.8	–	–	–	–	–	–	–	–	–	–
C=C1C(=O)O[C@H]2[C@H]1CC/C(COC(=O)c1c[nH]c3ccccc13)=C\CC[C@@]1(C)O[C@@H]21	3.3	1.07	1.41	1.08	2.41	3.18	–	1.33	0.592	0.391	1.5	0.19	0.294	0.367	0.825	1.1	–	0.215	0.285	0.32
CC1(C)C2CCC(=O)C1CC2 (stereo not drawn)	> 100	> 100	> 100	> 100	> 100	> 100	> 100	–	> 100	> 100	–	–	–	–	–	–	–	–	–	–
O=C(Nc1ccc(Cl)cc1)c1cccc(NC2=C(Cl)C(=O)N(Cc3ccccc3)C2=O)c1	28	30.1	> 100	20	22	35	15.7	14.9	27.5	–	14.8	–	11.6	25.7	10.3	15.2	3.5	14.4	3.56	3.83
Cc1ccc(NC(=O)c2cc3cc(N=Nc4ccccc4C(=O)O)ccc3oc2=O)cc1	> 100	–	> 100	–	> 100	> 100	–	–	> 100	> 100	–	–	–	–	–	–	–	–	–	–
OCC#Cc1ccccc1C#Cc1ccccc1	45	35.3	40.4	–	26.8	35.2	25.5	–	28.1	–	16.5	–	17.1	19.2	13.9	18.2	12.2	14.9	–	–
